{"source": "ChEMBL document CHEMBL3785084", "about": "“Rational modification of the lead molecule: Enhancement in the anticancer and dihydrofolate reductase inhibitory activity” (Bioorg Med Chem Lett, 2016)", "key": {"[1]": {"system": "CCRF-CEM", "experiment": "Cytotoxicity against human CCRF-CEM cells assessed as cell growth at 10^-5 M after 48 hrs by sulforhodamine B assay", "format": "functional", "details": "read-out: Activity"}, "[2]": {"system": "K562", "experiment": "Cytotoxicity against human K562 cells assessed as cell growth at 10^-5 M after 48 hrs by sulforhodamine B assay", "format": "functional", "details": "K562, 48 h, read-out: Activity"}, "[3]": {"experiment": "Cytotoxicity against human RPMI8226 cells assessed as cell growth at 10^-5 M after 48 hrs by sulforhodamine B assay", "format": "functional", "details": "RPMI-8226, 48 h, read-out: Activity"}, "[4]": {"system": "A549", "experiment": "Cytotoxicity against human A549 cells assessed as cell growth at 10^-5 M after 48 hrs by sulforhodamine B assay", "format": "functional", "details": "A549, 48 h, read-out: Activity"}, "[5]": {"system": "NCI-H23", "experiment": "Cytotoxicity against human NCI-H23 cells assessed as cell growth at 10^-5 M after 48 hrs by sulforhodamine B assay", "format": "functional", "details": "NCI-H23, 48 h, read-out: Activity"}, "[6]": {"system": "NCI-H460", "experiment": "Cytotoxicity against human NCI-H460 cells assessed as cell growth at 10^-5 M after 48 hrs by sulforhodamine B assay", "format": "functional", "details": "NCI-H460, 48 h, read-out: Activity"}, "[7]": {"system": "NCI-H522", "experiment": "Cytotoxicity against human NCI-H522 cells assessed as cell growth at 10^-5 M after 48 hrs by sulforhodamine B assay", "format": "functional", "details": "NCI-H522, 48 h, read-out: Activity"}, "[8]": {"experiment": "Cytotoxicity against human HCC2998 cells assessed as cell growth at 10^-5 M after 48 hrs by sulforhodamine B assay", "format": "functional", "details": "HCC 2998, 48 h, read-out: Activity"}, "[9]": {"experiment": "Cytotoxicity against human HCT116 cells assessed as cell growth at 10^-5 M after 48 hrs by sulforhodamine B assay", "format": "functional", "details": "HCT-116, 48 h, read-out: Activity"}, "[10]": {"experiment": "Cytotoxicity against human HCT15 cells assessed as cell growth at 10^-5 M after 48 hrs by sulforhodamine B assay", "format": "functional", "details": "HCT-15, 48 h, read-out: Activity"}, "[11]": {"system": "KM12", "experiment": "Cytotoxicity against human KM12 cells assessed as cell growth at 10^-5 M after 48 hrs by sulforhodamine B assay", "format": "functional", "details": "KM12, 48 h, read-out: Activity"}, "[12]": {"experiment": "Cytotoxicity against human SF295 cells assessed as cell growth at 10^-5 M after 48 hrs by sulforhodamine B assay", "format": "functional", "details": "SF-295, 48 h, read-out: Activity"}, "[13]": {"system": "Malme-3M", "experiment": "Cytotoxicity against human MALME-3M cells assessed as cell growth at 10^-5 M after 48 hrs by sulforhodamine B assay", "format": "functional", "details": "read-out: Activity"}, "[14]": {"system": "SK-MEL-28", "experiment": "Cytotoxicity against human SK-MEL-28 cells assessed as cell growth at 10^-5 M after 48 hrs by sulforhodamine B assay", "format": "functional", "details": "SK-MEL-28, 48 h, read-out: Activity"}, "[15]": {"experiment": "Cytotoxicity against human UACC62 cells assessed as cell growth at 10^-5 M after 48 hrs by sulforhodamine B assay", "format": "functional", "details": "UACC-62, 48 h, read-out: Activity"}, "[16]": {"experiment": "Cytotoxicity against human IGROV1 cells assessed as cell growth at 10^-5 M after 48 hrs by sulforhodamine B assay", "format": "functional", "details": "IGROV-1, 48 h, read-out: Activity"}, "[17]": {"system": "786-0", "experiment": "Cytotoxicity against human 786-0 cells assessed as cell growth at 10^-5 M after 48 hrs by sulforhodamine B assay", "format": "functional", "details": "786-0, 48 h, read-out: Activity"}, "[18]": {"experiment": "Cytotoxicity against human Caki1 cells assessed as cell growth at 10^-5 M after 48 hrs by sulforhodamine B assay", "format": "functional", "details": "CAKI-1, 48 h, read-out: Activity"}, "[19]": {"experiment": "Cytotoxicity against human DU145 cells assessed as cell growth at 10^-5 M after 48 hrs by sulforhodamine B assay", "format": "functional", "details": "DU-145, 48 h, read-out: Activity"}, "[20]": {"system": "MCF7", "experiment": "Cytotoxicity against human MCF7 cells assessed as cell growth at 10^-5 M after 48 hrs by sulforhodamine B assay", "format": "functional", "details": "MCF7, 48 h, read-out: Activity"}, "[21]": {"system": "T47D", "experiment": "Cytotoxicity against human T47D cells assessed as cell growth at 10^-5 M after 48 hrs by sulforhodamine B assay", "format": "functional", "details": "read-out: Activity"}, "[22]": {"experiment": "cells", "details": "Homo sapiens, IGROV-1, 48 h", "description": "Cytotoxicity against human IGROV1 cells after 48 hrs by sulforhodamine B assay"}, "[23]": {"experiment": "cells", "details": "Homo sapiens, OVCAR-5, 48 h", "description": "Cytotoxicity against human OVCAR5 cells after 48 hrs by sulforhodamine B assay"}, "[24]": {"system": "ACHN", "experiment": "cells", "details": "Homo sapiens, 48 h", "description": "Cytotoxicity against human ACHN cells after 48 hrs by sulforhodamine B assay"}, "[25]": {"experiment": "cells", "details": "Homo sapiens, PC-3, 48 h", "description": "Cytotoxicity against human PC3 cells after 48 hrs by sulforhodamine B assay"}, "[26]": {"system": "MCF7", "experiment": "cells", "details": "Homo sapiens, MCF7, 48 h", "description": "Cytotoxicity against human MCF7 cells after 48 hrs by sulforhodamine B assay"}, "[27]": {"system": "MDA-MB-231", "experiment": "cells", "details": "Homo sapiens, MDA-MB-231, 48 h", "description": "Cytotoxicity against human MDA-MB-231 cells after 48 hrs by sulforhodamine B assay"}, "[28]": {"experiment": "cells", "details": "Homo sapiens, HL-60, 48 h", "description": "Cytotoxicity against human HL-60(TB) cells after 48 hrs by sulforhodamine B assay"}, "[29]": {"experiment": "cells", "details": "Homo sapiens, HOP-62, 48 h", "description": "Cytotoxicity against human HOP62 cells after 48 hrs by sulforhodamine B assay"}, "[30]": {"system": "NCI-H226", "experiment": "cells", "details": "Homo sapiens, NCI-H226, 48 h", "description": "Cytotoxicity against human NCI-H226 cells after 48 hrs by sulforhodamine B assay"}, "[31]": {"system": "NCI-H23", "experiment": "cells", "details": "Homo sapiens, NCI-H23, 48 h", "description": "Cytotoxicity against human NCI-H23 cells after 48 hrs by sulforhodamine B assay"}, "[32]": {"experiment": "cells", "details": "Homo sapiens, COLO 205, 48 h", "description": "Cytotoxicity against human COLO205 cells after 48 hrs by sulforhodamine B assay"}, "[33]": {"experiment": "cells", "details": "Homo sapiens, HCT-15, 48 h", "description": "Cytotoxicity against human HCT15 cells after 48 hrs by sulforhodamine B assay"}, "[34]": {"experiment": "cells", "details": "Homo sapiens, SF-295, 48 h", "description": "Cytotoxicity against human SF295 cells after 48 hrs by sulforhodamine B assay"}, "[35]": {"experiment": "cells", "details": "Homo sapiens, SF-539, 48 h", "description": "Cytotoxicity against human SF539 cells after 48 hrs by sulforhodamine B assay"}, "[36]": {"experiment": "cells", "details": "Homo sapiens, SNB-19, 48 h", "description": "Cytotoxicity against human SNB19 cells after 48 hrs by sulforhodamine B assay"}, "[37]": {"experiment": "cells", "details": "Homo sapiens, SNB-75, 48 h", "description": "Cytotoxicity against human SNB75 cells after 48 hrs by sulforhodamine B assay"}}, "data": [{"smiles": "COc1cc(/C=C2\\C(=O)Nc3ccccc32)cc(OC)c1O", "values": [{"measurement": "growth at 10 µM", "setting": "[1]", "result": 26.7, "unit": "%"}, {"measurement": "growth at 10 µM", "setting": "[2]", "result": 7.58, "unit": "%"}, {"measurement": "growth at 10 µM", "setting": "[3]", "result": 46.6, "unit": "%"}, {"measurement": "growth at 10 µM", "setting": "[4]", "result": 67.9, "unit": "%"}, {"measurement": "growth at 10 µM", "setting": "[5]", "result": 66.4, "unit": "%"}, {"measurement": "growth at 10 µM", "setting": "[6]", "result": 40.1, "unit": "%"}, {"measurement": "growth at 10 µM", "setting": "[7]", "result": 8.78, "unit": "%"}, {"measurement": "growth at 10 µM", "setting": "[8]", "result": 78.8, "unit": "%"}, {"measurement": "growth at 10 µM", "setting": "[9]", "result": 46.4, "unit": "%"}, {"measurement": "growth at 10 µM", "setting": "[10]", "result": 61.6, "unit": "%"}, {"measurement": "growth at 10 µM", "setting": "[11]", "result": 32.2, "unit": "%"}, {"measurement": "growth at 10 µM", "setting": "[12]", "result": 60.6, "unit": "%"}, {"measurement": "growth at 10 µM", "setting": "[13]", "result": 118, "unit": "%"}, {"measurement": "growth at 10 µM", "setting": "[14]", "result": 90.2, "unit": "%"}, {"measurement": "growth at 10 µM", "setting": "[15]", "result": 72.1, "unit": "%"}, {"measurement": "growth at 10 µM", "setting": "[16]", "result": 70.2, "unit": "%"}, {"measurement": "growth at 10 µM", "setting": "[17]", "result": 83.2, "unit": "%"}, {"measurement": "growth at 10 µM", "setting": "[18]", "result": 37.7, "unit": "%"}, {"measurement": "growth at 10 µM", "setting": "[19]", "result": 92.5, "unit": "%"}, {"measurement": "growth at 10 µM", "setting": "[20]", "result": 30.8, "unit": "%"}, {"measurement": "growth at 10 µM", "setting": "[21]", "result": 49.6, "unit": "%"}, {"measurement": "GI50", "setting": "[22]", "result": 3.7, "unit": "µM"}, {"measurement": "TGI", "setting": "[22]", "result": 20.4, "unit": "µM"}, {"measurement": "CC50", "setting": "[22]; read-out: LC50", "result": 85.1, "unit": "µM"}, {"measurement": "GI50", "setting": "[23]", "result": 4.7, "unit": "µM"}, {"measurement": "TGI", "setting": "[23]", "result": 18.6, "unit": "µM"}, {"measurement": "CC50", "setting": "[23]; read-out: LC50", "result": 52.4, "unit": "µM"}, {"measurement": "GI50", "setting": "[24]", "result": 4.7, "unit": "µM"}, {"measurement": "TGI", "setting": "[24]", "result": 22.3, "unit": "µM"}, {"measurement": "CC50", "setting": "[24]; read-out: LC50", "result": 83.2, "unit": "µM"}, {"measurement": "GI50", "setting": "[25]", "result": 20.8, "unit": "µM"}, {"measurement": "TGI", "setting": "[25]", "result": "> 100", "unit": "µM"}, {"measurement": "CC50", "setting": "[25]; read-out: LC50", "result": "> 100", "unit": "µM"}, {"measurement": "GI50", "setting": "[26]", "result": 0.7, "unit": "µM"}, {"measurement": "TGI", "setting": "[26]", "result": 15.1, "unit": "µM"}, {"measurement": "CC50", "setting": "[26]; read-out: LC50", "result": "> 100", "unit": "µM"}, {"measurement": "GI50", "setting": "[27]", "result": 3.1, "unit": "µM"}, {"measurement": "TGI", "setting": "[27]", "result": 20.8, "unit": "µM"}, {"measurement": "CC50", "setting": "[27]; read-out: LC50", "result": "> 100", "unit": "µM"}, {"measurement": "GI50", "setting": "[28]", "result": 2.8, "unit": "µM"}, {"measurement": "TGI", "setting": "[28]", "result": 11.2, "unit": "µM"}, {"measurement": "CC50", "setting": "[28]; read-out: LC50", "result": "> 100", "unit": "µM"}, {"measurement": "GI50", "setting": "[29]", "result": 4.3, "unit": "µM"}, {"measurement": "TGI", "setting": "[29]", "result": 23.4, "unit": "µM"}, {"measurement": "CC50", "setting": "[29]; read-out: LC50", "result": "> 100", "unit": "µM"}, {"measurement": "GI50", "setting": "[30]", "result": 17.7, "unit": "µM"}, {"measurement": "TGI", "setting": "[30]", "result": "> 100", "unit": "µM"}, {"measurement": "CC50", "setting": "[30]; read-out: LC50", "result": "> 100", "unit": "µM"}, {"measurement": "GI50", "setting": "[31]", "result": 5, "unit": "µM"}, {"measurement": "TGI", "setting": "[31]", "result": 33.8, "unit": "µM"}, {"measurement": "CC50", "setting": "[31]; read-out: LC50", "result": "> 100", "unit": "µM"}, {"measurement": "GI50", "setting": "[32]", "result": 12.3, "unit": "µM"}, {"measurement": "TGI", "setting": "[32]", "result": 26.9, "unit": "µM"}, {"measurement": "CC50", "setting": "[32]; read-out: LC50", "result": 58.8, "unit": "µM"}, {"measurement": "GI50", "setting": "[33]", "result": 3.2, "unit": "µM"}, {"measurement": "TGI", "setting": "[33]", "result": 15.1, "unit": "µM"}, {"measurement": "CC50", "setting": "[33]; read-out: LC50", "result": 64.5, "unit": "µM"}, {"measurement": "GI50", "setting": "[34]", "result": 3, "unit": "µM"}, {"measurement": "TGI", "setting": "[34]", "result": 30.9, "unit": "µM"}, {"measurement": "CC50", "setting": "[34]; read-out: LC50", "result": "> 100", "unit": "µM"}, {"measurement": "GI50", "setting": "[35]", "result": 2.5, "unit": "µM"}, {"measurement": "TGI", "setting": "[35]", "result": 13.2, "unit": "µM"}, {"measurement": "CC50", "setting": "[35]; read-out: LC50", "result": 53.7, "unit": "µM"}, {"measurement": "GI50", "setting": "[36]", "result": 4.5, "unit": "µM"}, {"measurement": "TGI", "setting": "[36]", "result": 54.9, "unit": "µM"}, {"measurement": "CC50", "setting": "[36]; read-out: LC50", "result": "> 100", "unit": "µM"}, {"measurement": "GI50", "setting": "[37]", "result": 11.7, "unit": "µM"}, {"measurement": "TGI", "setting": "[37]", "result": 8.5, "unit": "µM"}, {"measurement": "CC50", "setting": "[37]; read-out: LC50", "result": "> 100", "unit": "µM"}]}]}
